In ChEMBL document CHEMBL1201862, “PubChem BioAssay data set” (2004):
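The compound was tested at five concentrations on cells cultured in 96-well plates, with a 48-hour exposure period. GI50: concentration for 50% inhibition of growth.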 The source made the active and inactive calls. Rule as the data show it: active = GI50 up to about 1.1 µM and inactive = higher.

What was measured:
Experiment in all cases: inhibition of tumour cell growth, NCI panel, 48 h
A549 = test system: A549
ACHN = test system: ACHN
DU-145 = test system: DU-145
M14 = test system: M14
MCF7 = test system: MCF7
MDA-MB-231 = test system: MDA-MB-231
MDA-N = test system: MDA-N
MOLT-4 = test system: MOLT-4
NCI-H460 = test system: NCI-H460
NCI-H522 = test system: NCI-H522
OVCAR-3 = test system: OVCAR-3
RXF 393 = test system: RXF 393
SF-539 = test system: SF-539
SK-OV-3 = test system: SK-OV-3
SNB-19 = test system: SNB-19
SR = test system: SR
T47D = test system: T47D
TK-10 = test system: TK-10
U-251 = test system: U-251
HCC 2998 = test system: HCC 2998

Measured: GI50

Nc1ccc(S(=O)(=O)NCc2nccs2)cc1
inactive: A549 27.9 µM | ACHN 23.4 µM | DU-145 29 µM | M14 18.2 µM | MCF7 23.4 µM | MDA-MB-231 24.9 µM | MDA-N 22.3 µM | MOLT-4 23.2 µM | NCI-H460 26.5 µM | NCI-H522 16.6 µM | OVCAR-3 34 µM | RXF 393 29.9 µM | SF-539 19.1 µM | SK-OV-3 32.3 µM | SNB-19 29.1 µM | SR 31 µM | T47D 24.1 µM | TK-10 22.2 µM | U-251 21.8 µM

O=C(O)c1nc2ccccc2nc1NCc1ccc(F)cc1
inactive: A549 57.7 µM | DU-145 99.8 µM | HCC 2998 99.1 µM | M14 > 100 µM | MCF7 86.5 µM | MDA-MB-231 68.7 µM | MDA-N > 100 µM | MOLT-4 67 µM | NCI-H460 60.7 µM | NCI-H522 48.9 µM | OVCAR-3 42.2 µM | RXF 393 > 100 µM | SF-539 > 100 µM | SNB-19 47.5 µM | SR 42.4 µM | T47D 40.9 µM | TK-10 > 100 µM | U-251 52.7 µM

Clc1ccc(/C=C/c2nc3ccccc3s2)cc1Cl
inactive: A549 57.8 µM | ACHN 29.4 µM | DU-145 > 100 µM | HCC 2998 97.3 µM | M14 36.5 µM | MCF7 15.1 µM | MDA-MB-231 16.2 µM | MDA-N 70.5 µM | MOLT-4 > 100 µM | NCI-H460 53.5 µM | NCI-H522 > 100 µM | OVCAR-3 50.6 µM | SF-539 91.8 µM | SK-OV-3 50.1 µM | SNB-19 30.5 µM | SR > 100 µM | T47D 1.66 µM | TK-10 34.4 µM | U-251 25.7 µM

CN(/N=C/c1ccc(Cl)c(Cl)c1)C1=NCCCCN1
inactive: A549 62.4 µM | ACHN 44.6 µM | DU-145 91.2 µM | HCC 2998 24.9 µM | M14 15.4 µM | MCF7 19.8 µM | MDA-MB-231 32 µM | MDA-N 19.9 µM | MOLT-4 21.8 µM | NCI-H460 42.5 µM | NCI-H522 17.8 µM | OVCAR-3 41.6 µM | SF-539 29.3 µM | SK-OV-3 53.3 µM | SNB-19 45.4 µM | SR 41.3 µM | T47D 16.6 µM | TK-10 69.8 µM | U-251 26.6 µM

O=C(Nc1ccc(Cl)cc1)c1cc(S(=O)(=O)N2CCNNC2=O)c(S)cc1Cl
inactive: A549 > 100 µM | ACHN > 100 µM | DU-145 > 100 µM | HCC 2998 > 100 µM | M14 > 100 µM | MCF7 > 100 µM | MDA-MB-231 > 100 µM | MDA-N > 100 µM | MOLT-4 > 100 µM | NCI-H460 > 100 µM | NCI-H522 24.7 µM | OVCAR-3 > 100 µM | RXF 393 17.4 µM | SF-539 > 100 µM | SNB-19 > 100 µM | SR > 100 µM | T47D 35.6 µM | TK-10 52.5 µM | U-251 > 100 µM

COC1(OC)N=C(N)C2(C#N)/C(=N/N(C)C)CC(C)C12C#N (stereo not given)
inactive: A549 > 100 µM | ACHN > 100 µM | DU-145 > 100 µM | HCC 2998 > 100 µM | M14 > 100 µM | MCF7 > 100 µM | MDA-MB-231 > 100 µM | MDA-N > 100 µM | MOLT-4 > 100 µM | NCI-H522 > 100 µM | RXF 393 > 100 µM | SF-539 > 100 µM | SK-OV-3 > 100 µM | SNB-19 > 100 µM | SR > 100 µM | T47D > 100 µM | TK-10 > 100 µM | U-251 > 100 µM

CCOC(=O)C(CS)NC(=O)CCCCCCCC(=O)NC(CS)C(=O)OCC (stereo not given)
inactive: A549 > 100 µM | ACHN > 100 µM | DU-145 > 100 µM | HCC 2998 > 100 µM | M14 > 100 µM | MCF7 > 100 µM | MDA-MB-231 > 100 µM | MDA-N > 100 µM | MOLT-4 32.4 µM | NCI-H460 > 100 µM | NCI-H522 49.1 µM | OVCAR-3 > 100 µM | SF-539 > 100 µM | SK-OV-3 > 100 µM | SNB-19 37.4 µM | SR 36.3 µM | T47D > 100 µM | TK-10 > 100 µM | U-251 > 100 µM

[O-][S@@+]1c2ccc3ccccc3c2N[C@@H]2[C@H]1[C@H]1C=C[C@@H]2C1
inactive: A549 57.5 µM | ACHN > 100 µM | DU-145 46.9 µM | M14 48.4 µM | MCF7 26.1 µM | MDA-MB-231 32.3 µM | MDA-N 20.8 µM | MOLT-4 26.6 µM | NCI-H460 37.6 µM | NCI-H522 21.5 µM | OVCAR-3 11.9 µM | RXF 393 19.5 µM | SF-539 > 100 µM | SK-OV-3 42.1 µM | SNB-19 > 100 µM | SR 30 µM | T47D 16.5 µM | TK-10 51.1 µM | U-251 76.4 µM

O=c1[nH]nc(-c2ccccc2)n1/N=C\c1ccccc1
inactive: A549 > 100 µM | ACHN > 100 µM | DU-145 > 100 µM | HCC 2998 > 100 µM | MCF7 > 100 µM | MDA-MB-231 > 100 µM | MDA-N > 100 µM | MOLT-4 > 100 µM | NCI-H460 > 100 µM | NCI-H522 > 100 µM | OVCAR-3 > 100 µM | RXF 393 13.2 µM | SF-539 > 100 µM | SR > 100 µM | T47D > 100 µM | TK-10 > 100 µM | U-251 > 100 µM

CC(NNC(=O)c1cc[n+]([BH2-]C#N)cc1)c1ccccc1F (stereo not given)
inactive: A549 > 100 µM | ACHN > 100 µM | DU-145 > 100 µM | HCC 2998 > 100 µM | M14 > 100 µM | MCF7 > 100 µM | MDA-MB-231 > 100 µM | MDA-N > 100 µM | MOLT-4 > 100 µM | NCI-H460 > 100 µM | NCI-H522 > 100 µM | OVCAR-3 > 100 µM | RXF 393 > 100 µM | SF-539 > 100 µM | SNB-19 > 100 µM | SR > 100 µM | T47D > 100 µM | TK-10 > 100 µM | U-251 > 100 µM

Nc1ccc2c(c1)CN1C(=O)c3ccccc3C1=N2 [DANIQUIDONE]
inactive: A549 31 µM | ACHN 14.7 µM | DU-145 27.4 µM | HCC 2998 63 µM | M14 104 µM | MCF7 39.5 µM | MDA-MB-231 31.6 µM | MDA-N 49.4 µM | MOLT-4 3.77 µM | NCI-H460 15.5 µM | NCI-H522 45.3 µM | OVCAR-3 40.9 µM | RXF 393 34.4 µM | SF-539 10.3 µM | SNB-19 29 µM | SR 18.7 µM | T47D 52.5 µM | TK-10 36.4 µM | U-251 27.7 µM
